# From US11596662B2, “Passion flower seed extract, and cosmetic, pharmaceutical or dermatological compositions containing same” (priority 2015, dated 2023)
# Assays:
# [1] = tested on: keratinocytes treated with 9 μg/ml BaP; assay: ROS production in keratinocytes treated with 9 μg/ml BaP (H2DCF-DA probe); assay type: cell-based, human; settings: 24 hours, then 9 μg/ml BaP 20 minutes
# Procedure: The keratinocytes were then stimulated with 9 μg/ml benzo-α-pyrene (BaP) for 20 minutes. ROS production was evaluated by measurement of fluorescence.
# (§1) The significance of the results was verified by Student's t-test.
# [2] = tested on: MMP1; assay: IR-induced production of MMP1 in normal human fibroblasts (ELISA); assay type: cell-based; settings: 10^−7 M, 48 hours after IR 0.57 kJ/cm^2
# Procedure: The ability of an extract of the invention to protect dermal cells from the harmful effects of IR rays was studied by evaluating MMP1 production.
# Normal human fibroblasts (NHF) were incubated in the presence of a 0.001% extract of the invention, as obtained in Example 1, or of 10^−7 M dexamethasone (reference anti-inflammatory) for 48 hours following 1 hour of infrared irradiation (0.57 kJ/cm^2).
# After incubation, the supernatants are collected in order to assay released MMP1 (ELISA Kit, R&D Systems).
# as §1
# [3] = tested on: haem oxygenase 1 (HMOX1); assay: HMOX1 production by fibroblasts (ELISA); assay type: cell-based, human; settings: 24 hours
# Procedure: An extract of the invention was analysed on the protein expression of haem oxygenase.
# Normal human fibroblasts were treated for 24 hours with a 0.002% and a 0.005% (w/v) extract of the invention, as obtained in Example 1, and with 5 and 10 μM curcumin (reference hormetin).
# At the end of the treatment, intracellular haem oxygenase 1 (or HMOX1 or H01) was quantified using an ELISA technique. Staining, proportional to the quantity of the marker of interest, was measured by reading the optical density (OD) at 450 nm, and the value obtained was related to the quantity of cells obtained by a protein assay using the BC Assay (Interchim).
# The results were statistically analysed by one-way ANOVA followed by Dunnett's test (GraphPad PRISM version 5.02 software, GraphPad Software, San Diego, Calif., USA).
# [4] = tested on: keratinocytes treated by UV at 2400 J/m^2; assay: ROS production in keratinocytes treated by UV at 2400 J/m^2; assay type: cell-based, human; settings: 500 μM
# Procedure: The antioxidant potential of an extract of the invention with respect to UV-irradiation-induced reactive oxygen species (ROS) was studied.
# Normal human keratinocytes were incubated for 24 hours in the presence of a 0.001% and a 0.005% (w/v) extract of the invention, as obtained in Example 1, or of 500 μM vitamin C (reference antioxidant), before incorporation of the H2DCF-DA probe (incubation for 1 hour).
# The keratinocytes were then stimulated with UV at 2400 J/m^2 (2000 J/m^2 UVB and 400 J/m^2 UVA) then returned to culture in the presence of a 0.001% and a 0.005% (w/v) extract of the invention, as obtained in Example 1, or of 500 μM vitamin C, for 15 minutes at 37° C.
# The production of reactive oxygen species (ROS) was evaluated by measurement of fluorescence and the value obtained was normalized to the quantity of cells obtained using an MTT cell viability assay.
# (§2) The results were statistically analysed by one-way ANOVA followed by Tukey's test (GraphPad PRISM version 5.02 software, GraphPad Software, San Diego, Calif., USA).
# [5] = tested on: H2O2-treated keratinocytes; assay: ROS production in H2O2-treated keratinocytes (H2DCF-DA probe); assay type: cell-based, human; settings: 24 hours, then 100 μM H2O2 20 minutes
# Procedure: The antioxidant potential of an extract of the invention with respect to H2O2 induction of reactive oxygen species was studied.
# Normal human keratinocytes were incubated for 24 hours in the presence of a 0.002%, a 0.005% and a 0.01% (w/v) extract of the invention, as obtained in Example 1, or of 500 μM vitamin C and 10 μM quercetin (reference antioxidants) before incorporation of the H2DCF-DA probe (incubation for 60 minutes).
# The keratinocytes were then stimulated with 100 μM hydrogen peroxide (H2O2) for 20 minutes and the production of reactive oxygen species (ROS) was evaluated by measurement of fluorescence.
# as §2
# [6] = tested on: Nrf2; assay: Nrf2 activity in ARE-luciferase-transfected HaCaT keratinocytes; assay type: cell-based; settings: 6 hours
# Procedure: The effect of the extract of the invention was evaluated with respect to activation of translocation of Nrf2, precursor of the cascade responsible for the hormetic response and for certain detoxification pathways of the organism.
# ARE-luciferase-transfected HaCaT keratinocytes, containing the antioxidant response element (ARE) plasmid NQO1, which is a specific plasmid for activation of Nrf2 and luciferase (reporter gene), were treated for 6 hours at 37° C. with an extract of the invention, as obtained in Example 1, at concentrations ranging from 0.01% to 0.0005% (w/v) and with a positive reference, 20 μM tert-butylhydroquinone.
# At the end of the treatment, the cell monolayers are lysed, luciferase activity is assayed using a “Luciferase Assay Kit” from PROMEGA, and the protein content of each lysate is assayed using the Bradford method (BioRad).
# [7] = tested on: prostaglandin E2 (PGE2); assay: PGE2 production in PMA-treated keratinocytes; assay type: cell-based, human; settings: 10^−6 M, 24 hours pretreatment, then PMA 0.1 μg/ml 24 hours
# Procedure: The anti-inflammatory protection of an extract of the invention with respect to a chemical molecule, PMA, was studied by analysis of the release of prostaglandin 2 (PGE2).
# Normal human keratinocytes were pretreated with a 0.002% and a 0.005% extract of the invention, as obtained in Example 1, and with 10^−6 M indomethacin (anti-inflammatory control of the prostaglandin pathway) for 24 hours at 37° C., in order to be able to measure a level of protection of the active agent with respect to inflammation by 0.1 μg/ml PMA (phorbol 12-myristate 13-acetate) used on these same cell monolayers for a further 24 hours. At the end of the treatment, the supernatants are collected and an assay of prostaglandin E2 (PGE2; R&D Systems) is performed. Staining, proportional to the amount of PGE2, was measured by reading the optical density (OD) at 450 nm.
# as §1
compound,measurement,setting,value
Oc1ccc(C=Cc2cc(O)cc(O)c2)cc1 [resveratrol],ROS % change (Significance),[1]; 10 μM,−21%
same,ROS (fluorescence units),[1]; 10 μM,20357 ± 503 fluorescence units
"C[C@@H]1C[C@H]2[C@@H]3CCC4=CC(=O)C=C[C@]4(C)[C@@]3(F)[C@@H](O)C[C@]2(C)[C@@]1(O)C(=O)CO [Dexamethasone, dexamethasone]",% protection (IR-induced MMP1),[2],102%
same,MMP1,[2],9.3 ng/mL
"COc1cc(/C=C/C(=O)CC(=O)/C=C/c2ccc(O)c(OC)c2)ccc1O [Curcumin, curcumin]",HMOX1 (ng/ml on quantity of cells),[3]; 5 μM,0.060 ± 0.002 ng/ml on quantity of cells
same,HMOX1 (ng/ml on quantity of cells),[3]; 10 μM,0.105 ± 0.006 ng/ml on quantity of cells
same,ROS % change (Significance),[1]; 10 μM,−16%
same,ROS (fluorescence units),[1]; 10 μM,14065 ± 1231 fluorescence units
O=C1O[C@H]([C@@H](O)CO)C(O)=C1O [vitamin C],ROS % change (Significance),[1]; 500 μM,−16%
same,ROS (fluorescence units),[1]; 500 μM,14089 ± 1719 fluorescence units
same,ROS (fluorescence intensity/MTT),[4]; UV 2400 J/m^2,26005 ± 3723 fluorescence intensity/MTT
same,ROS % change,"[4]; UV 2400 J/m^2, vs control with UVs",−40%
same,ROS % change (Significance),[5]; 500 μM,−51%
same,ROS (fluorescence units),[5]; 500 μM,21719.018 ± 3174.253 fluorescence units
"CC(C)(C)c1cc(O)ccc1O [Tert-butylhydroquinone, tert-butylhydroquinone]",Nrf2 activity (mean normalized RLU/μg of proteins),[6]; 20 μM,23216.4 RLU/μg of proteins
same,Nrf2 Activation (%),[6]; 20 μM (positive reference = 100),100%
O=c1c(O)c(-c2ccc(O)c(O)c2)oc2cc(O)cc(O)c12 [quercetin],ROS % change (Significance),[1]; 10 μM,−32%
same,ROS (fluorescence units),[1]; 10 μM,17140 ± 1930 fluorescence units
same,ROS % change (Significance),[5]; 10 μM,−67%
same,ROS (fluorescence units),[5]; 10 μM,14367.847 ± 1790.753 fluorescence units
"COc1ccc2c(c1)c(CC(=O)O)c(C)n2C(=O)c1ccc(Cl)cc1 [Indomethacin, indomethacin]",PGE2,[7],52 ± 8 pg/mL
same,inhibition at 1 µM,"[7]; Homo sapiens, Keratinocyte",100%
